Laboratory results: ChEMBL document CHEMBL3797129, “Dysiherbols A-C and Dysideanone E, Cytotoxic and NF-κB Inhibitory Tetracyclic Meroterpenes from a Dysidea sp. Marine Sponge” (J Nat Prod, 2016)

Assays:
[1] = Inhibition of TNF alpha-induced NF-kappaB (unknown origin) activation in HEK293 cells after 6 hrs by luciferase reporter gene assay; type: cell-based; settings: Homo sapiens, HEK293, 6 h
[2] = Cytotoxicity against human NCI-H929 cells after 48 hrs by MTS assay; type: functional, cell-based; settings: NCI-H929, 48 h

Row | Structure (SMILES) | IC50 [1] | IC50 [2]
1 | C[C@@H]1CC[C@]2(C)[C@@]3(CCC[C@]2(C)O)c2c(O)ccc(O)c2C[C@@]13C | 0.49 µM | 0.58 µM
2 | CC1=CCC[C@H]2[C@](C)(Cc3cc(O)ccc3O)[C@@H](C)CC[C@]12C [AVAROL] | > 10 µM | 3.32 µM
3 | C[C@@H]1CC[C@]2(C)[C@@]3(CCC(=O)[C@]2(C)O)c2c(O)ccc(O)c2C[C@@]13C | 6.4 µM | 12 µM
4 | C=C1CC[C@H]2[C@H]3[C@](C)(CC4=CC(=O)C=C[C@@]42O)[C@@H](C)CC[C@]13C | > 10 µM | 25 µM
5 | C[C@@H]1CC[C@]2(C)[C@@]3(CC[C@H](O)[C@]2(C)O)c2c(O)ccc(O)c2C[C@@]13C | 5.9 µM | 15 µM
6 | COc1ccc([C@@]23Oc4cc(OC)cc(OC)c4[C@]2(O)[C@H](O)[C@H](C(=O)N(C)C)[C@H]3c2ccccc2)cc1 [ROCAGLAMIDE] | 2.6 µM | 3.9 µM
